Patent publication US20250387375A1, “SOFALCONE DERIVATIVES AND MEDICAL USE THEREOF” (KAOHSIUNG MEDICAL UNIVERSITY, priority 2024, published 2025)

Tests used:
Type in all cases: cell-based
[1] = system: PGE2 formation in human platelet suspensions; test: Measurement of platelet PGE2 level after arachidonic acid; settings: AA 100 μM; human platelet suspension
Method: (§1) FIGS. 6A and 6B show the effect of sofalcone and its derivatives on TxB2 and PGE2 productions induced by arachidonic acid (AA). […] After human platelet suspension was pretreated with dimethyl sulfoxide (DMSO) or sofalcone (SFC), sofalcone derivative 3, and sofalcone derivative 30, arachidonic acid (100 μM) was added to stimulate the productions of arachidonic acid metabolites TxB2 and PGE2. Data are presented as mean±standard error of the mean (n>5). Compared with the control group, *P<0.05, **P<0.01, ***P<0.001. ASA: Aspirin.
(§2) Blood samples were collected from healthy donors, and acid-citrate-dextrose (ACD) solution was used as an anticoagulant. The blood samples were centrifuged to obtain platelets, and residual plasma was removed by washing to prepare platelet suspension.
(§3) The compound to be tested was added to the platelet suspension and reacted for 3 minutes at 37° C. under stirring (1200 rpm), then arachidonic acid (AA) (100 μM) was added to react for 4 minutes, and finally EDTA (5 mM) was added to terminate the reaction. The above sample was centrifuged at 13,000 rpm for 1 minute at 4° C. and the supernatant was collected. The concentrations of TxB2 and PGE2 in the supernatant were measured respectively using enzyme immunoassay kits (TxB2 ELISA kit and PGE2 ELISA kit; Cayman Chemical Company).

[2] = system: human platelet suspension (platelet aggregation caused by collagen); test: Platelet aggregation reaction test, collagen-induced; settings: read-out: Collagen IC 50
Method: as §2
(§4) In the experimental method, a platelet aggregometer (Chrono-Log Co., Havertown, PA, USA) was used for tests. The compound to be tested was added to the platelet suspension and reacted for 3 minutes at 37° C. with stirring (1200 rpm). Then, platelet stimulator U46619 or collagen was added to initiate platelet aggregation, and the test time was 5 minutes. The principle of the platelet aggregation test was: when platelets were stimulated to induce aggregation reaction, the light transmission of the platelet suspension would increase; by calculating changes in light transmission of the platelet suspension before and after being stimulated, the percentage of platelet aggregation could be obtained.

[3] = system: human platelet suspension (platelet aggregation caused by TxA2 agonist U46619); test: Platelet aggregation reaction test, U46619-induced
Method: as §2, §4

TxA2 receptor = molecular target: T1, TxA2 receptor (Homo sapiens, UniProt P21731); test: Competitive antagonism of U46619-induced platelet aggregation (U46619 concentration-response curves)
T1 construct: The blood samples were centrifuged to obtain platelets, and residual plasma was removed by washing to prepare platelet suspension; endogenous in cells; host or cells: washed human platelets from healthy donors
T1 sequence (P21731 1-343): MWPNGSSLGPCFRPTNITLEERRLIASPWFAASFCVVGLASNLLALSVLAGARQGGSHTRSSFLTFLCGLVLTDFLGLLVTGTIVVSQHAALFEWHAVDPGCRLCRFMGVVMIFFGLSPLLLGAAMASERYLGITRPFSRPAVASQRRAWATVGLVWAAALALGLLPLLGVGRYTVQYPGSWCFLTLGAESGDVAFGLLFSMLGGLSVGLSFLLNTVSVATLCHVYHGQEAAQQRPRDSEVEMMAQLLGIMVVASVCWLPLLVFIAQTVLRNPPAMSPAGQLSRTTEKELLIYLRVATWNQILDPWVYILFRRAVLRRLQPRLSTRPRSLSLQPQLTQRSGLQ
Method: After human platelet suspension was pretreated with dimethyl sulfoxide (DMSO) or sofalcone (SFC) (FIG. 5A), sofalcone derivative 3 (FIG. 5B), and sofalcone derivative 30 (FIG. 5C), different concentrations of U46619 (0.1-10 μM) were added to stimulate platelet aggregation reaction. Data are presented as mean±standard error of the mean (n=5).
as §2, §4
After pretreating human platelet suspensions with dimethylsulfoxide (DMSO), sofalcone (20 μM and 50 μM), and sofalcone derivatives 3 or 30 (0.2 μM and 0.5 μM, respectively), different concentrations of U46619 (0.1-10 μM) were added to stimulate platelet aggregation.

[4] = system: TxB2 formation in human platelet suspensions; test: Measurement of platelet TxB2 level after arachidonic acid; settings: AA 100 μM; human platelet suspension
Method: as §1, §2, §3

[5] = pretreatment 0.2 μM and 0.5 μM, U46619 0.1-10 μM

| IC50 [2] | IC50 [3] | SMILES | further results |
| --- | --- | --- | --- |
| 0.38 µM | 0.04 µM | CC(C)=CCOc1ccc(/C=C/C(=O)c2ccc(OCC=C(C)C)cc2OCCCC(=O)O)cc1 [Compound 30] | formation of PGE2 induced by arachidonic acid [1]: did not inhibit; mode of action at TxA2 receptor (TxA2 receptor; concluded from parallel right shift of U46619 curves): competitively antagonize; U46619 concentration-platelet aggregation response curve (TxA2 receptor; [5]): shifted parallelly to the right; maximum level of platelet aggregation (TxA2 receptor; [5]): not significantly affected; formation of TxB2 induced by arachidonic acid [4]: did not inhibit |
| > 100 µM | > 100 µM | COC(=O)COc1cc(OCC=C(C)C)ccc1C(=O)CCc1ccc(OCC=C(C)C)cc1 [Compound 74] | – |
| 1.3 µM | 0.35 µM | CC(C)=CCOc1ccc(CCC(=O)c2ccc(OCC=C(C)C)cc2OCCCC(=O)O)cc1 [Compound 75] | – |
| 31 µM | 12.6 µM | CC(C)=CCOc1ccc(CCC(=O)c2ccc(OCC=C(C)C)cc2OCC(=O)O)cc1 [Compound 76] | – |
| 43.6 µM | 5.54 µM | O=C(O)CCCCCOc1ccccc1C(=O)C=Cc1ccccc1 [Compound 77] | – |
| 7.7 µM | 5.87 µM | Nc1ccsc1C=CC(=O)c1ccccc1OCCCCCC(=O)O [Compound 78] | – |
| 62.7 µM | 51.5 µM | O=C(O)CCCCCOc1ccccc1C(=O)C=Cc1nccs1 [Compound 80] | – |
| 23.8 µM | 28 µM | COC(=O)COc1cc(OC(C)=O)ccc1C(=O)C=Cc1ccc(OC(C)=O)cc1 [Compound 81] | – |
| ≥ 100 µM | > 100 µM | COC(=O)COc1cc(OCC(=O)c2ccccc2)ccc1C(=O)C=Cc1ccc(OCC(=O)c2ccccc2)cc1 [Compound 82] | – |
| 8.31 µM | 8.62 µM | CCOC(=O)COc1ccc(C=CC(=O)c2ccc(OCC(=O)OCC)cc2OCC(=O)OC)cc1 [Compound 83] | – |
| > 100 µM | 80.8 µM | CCOC(=O)COc1ccc(C=CC(=O)c2ccc(OCC(=O)OCC)cc2OCC(=O)O)cc1 [Compound 84] | – |
| > 100 µM | > 100 µM | COC(=O)COc1cc(OCc2ccccc2)ccc1C(=O)C=Cc1ccc(OCc2ccccc2)cc1 [Compound 85] | – |
| > 100 µM | > 100 µM | COC(=O)COc1cc(OCc2ccc(F)cc2)ccc1C(=O)C=Cc1ccc(OCc2ccc(F)cc2)cc1 [Compound 86] | – |
| > 100 µM | > 100 µM | COC(=O)COc1cc(OCc2ccc(OC)cc2)ccc1C(=O)C=Cc1ccc(OCc2ccc(OC)cc2)cc1 [Compound 87] | – |
| 45.1 µM | 9.09 µM | O=C(O)COc1cc(OCc2ccccc2)ccc1C(=O)C=Cc1ccc(OCc2ccccc2)cc1 [Compound 88] | – |
| 33.9 µM | 3.59 µM | O=C(O)COc1cc(OCc2ccc(F)cc2)ccc1C(=O)C=Cc1ccc(OCc2ccc(F)cc2)cc1 [Compound 89] | – |
| > 100 µM | > 100 µM | CCCCOc1ccc(C=CC(=O)c2ccc(OCCCC)cc2OCC(=O)OC)cc1 [Compound 90] | – |
| > 50 µM | > 50 µM | CCCCCCOc1ccc(C=CC(=O)c2ccc(OCCCCCC)cc2OCC(=O)OC)cc1 [Compound 91] | – |
| > 50 µM | > 50 µM | CCCCCCCCOc1ccc(C=CC(=O)c2ccc(OCCCCCCCC)cc2OCC(=O)OC)cc1 [Compound 92] | – |
| > 50 µM | > 50 µM | CCCCCCCCCCOc1ccc(C=CC(=O)c2ccc(OCCCCCCCCCC)cc2OCC(=O)OC)cc1 [Compound 93] | – |
| 63.2 µM | 40.7 µM | CCCCOc1ccc(C=CC(=O)c2ccc(OCCCC)cc2OCC(=O)O)cc1 [Compound 94] | – |

| IC50 [2] | IC50 [3] | SMILES | further results |
| --- | --- | --- | --- |
| 76.3 µM | 36.9 µM | CCCCCCOc1ccc(C=CC(=O)c2ccc(OCCCCCC)cc2OCC(=O)O)cc1 [Compound 95] | – |
| > 100 µM | > 100 µM | CCCCCCCCOc1ccc(C=CC(=O)c2ccc(OCCCCCCCC)cc2OCC(=O)O)cc1 [Compound 96] | – |
| > 50 µM | > 50 µM | CCCCCCCCCCOc1ccc(C=CC(=O)c2ccc(OCCCCCCCCCC)cc2OCC(=O)O)cc1 [Compound 97] | – |
| 6.42 µM | 3.33 µM | CC(C)=CCOc1ccc(C=CC(=O)c2ccccc2OCCCC(=O)O)cc1 [Compound 99] | – |
| 66.8 µM | 1.73 µM | CC(C)CCOc1ccc(CCC(=O)c2ccc(OCCC(C)C)cc2OCC(=O)O)cc1 [Compound 100] | – |
| 3.25 µM | 3.53 µM | O=C(O)CCCCOc1ccccc1C(=O)C=Cc1ccccc1 [Compound 101] | – |
| 3.14 µM | 2.42 µM | CC(C)=CCOc1ccc(C=CC(=O)c2ccccc2OCCCCC(=O)O)cc1 [Compound 102] | – |
| 0.38 µM | 0.46 µM | CC(C)=CCOc1ccc(C=CC(=O)c2ccccc2OCCCCCC(=O)O)cc1 [Compound 103] | – |
| 5.31 µM | 13.5 µM | CCOC(=O)CCCCCCOc1ccccc1C(=O)C=Cc1ccccc1 [Compound 104] | – |
| 9.08 µM | 2.92 µM | O=C(O)CCCCCCOc1ccccc1C(=O)C=Cc1ccccc1 [Compound 105] | – |
| 13.1 µM | 2.84 µM | CCOC(=O)CCCCCCCOc1ccccc1C(=O)C=Cc1ccccc1 [Compound 106] | – |
| 8.35 µM | 2.49 µM | O=C(O)CCCCCCCOc1ccccc1C(=O)C=Cc1ccccc1 [Compound 107] | – |
| 3.67 µM | 15.3 µM | CCOC(=O)COc1ccccc1C(=O)C=Cc1ccccc1 [Compound 108] | – |
| 4.89 µM | 9.56 µM | CCOC(=O)CCCOc1ccccc1C(=O)C=Cc1ccccc1 [Compound 109] | – |
| 4.48 µM | 2.9 µM | CCOC(=O)CCCCOc1ccccc1C(=O)C=Cc1ccccc1 [Compound 110] | – |
| 0.22 µM | 0.16 µM | CCOC(=O)CCCCCOc1ccccc1C(=O)C=Cc1ccccc1 [Compound 111] | – |
| 2.69 µM | 13.4 µM | COC(=O)CCCOc1ccccc1C(=O)C=Cc1ccccc1 [Compound 112] | – |
| 0.35 µM | 0.57 µM | COC(=O)CCCCCOc1ccccc1C(=O)C=Cc1ccccc1 [Compound 113] | – |
| 5.87 µM | 0.2 µM | CCOC(=O)CCCCCOc1ccccc1C(=O)CCc1ccccc1 [Compound 115] | – |
| 4.46 µM | 0.2 µM | O=C(O)CCCCCOc1ccccc1C(=O)CCc1ccccc1 [Compound 116] | – |
| 5.27 µM | 0.71 µM | CC1=C(C)C(=O)C(C(CCCCCC(=O)O)c2ccccc2)=C(C)C1=O (centres unmarked) [Seratrodast, reference compound] | – |
